Experimental data reported in the supplement of paper PMC10307832.

Key:
Experiment in all cases: relative viability (nuclei count vs DMSO), 5 days (fraction); higher = more cells survive
[1] = compound: Cc1cc([C@@H](C)Nc2ccccc2C(=O)O)c2nc(N3CCOCC3)cc(=O)n2c1 [AZD6482] + C[C@]1(O)C[C@@H](c2nc(-c3ccc4ccc(-c5ccccc5)nc4c3)c3c(N)nccn32)C1 [Linsitinib] (partner 1 µM)
How it was run: (§1)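 A single step with final 0.05% Triton X-100, 1% formaldehyde and 1 ug/ml Hoechst fixed the cells and stained nuclei 5 days after treatment. Lung cancer cell lines in 1536-well plates had been treated by pin tool the day after seeding with one drug alone or a fixed anchor-drug dose plus five library-drug doses (not always all listed) in √10 steps, and nuclei were counted on 4× images. Relative viability is the ratio of nuclei in treated wells to nuclei in vehicle wells, taken as the median of duplicate plates.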

[2] = compound: Cc1cc([C@@H](C)Nc2ccccc2C(=O)O)c2nc(N3CCOCC3)cc(=O)n2c1 [AZD6482] + CC1(C)CCC(c2ccc(Cl)cc2)=C(CN2CCN(c3ccc(C(=O)NS(=O)(=O)c4ccc(N[C@H](CCN5CCOCC5)CSc5ccccc5)c(S(=O)(=O)C(F)(F)F)c4)cc3)CC2)C1 [Navitoclax] (partner 0.5 µM)
How it was run: as §1

[3] = compound: Cc1cc([C@@H](C)Nc2ccccc2C(=O)O)c2nc(N3CCOCC3)cc(=O)n2c1 [AZD6482] + CC(=O)c1c(C)c2cnc(Nc3ccc(N4CCNCC4)cn3)nc2n(C2CCCC2)c1=O [Palbociclib] (partner 0.5 µM)
How it was run: as §1

[4] = compound: COc1cc2nc(N3CCCN(C)CC3)nc(NC3CCN(Cc4ccccc4)CC3)c2cc1OC + Cc1cc(Nc2cc(N3CCN(C)CC3)nc(Sc3ccc(NC(=O)C4CC4)cc3)n2)n[nH]1 [Tozasertib] (partner 0.1 µM)
How it was run: as §1

Row | Cell Line | relative viability ([1]; first compound 0.08 µM) | relative viability ([1]; first compound 0.253 µM) | relative viability ([1]; first compound 0.8 µM) | relative viability ([1]; first compound 2.53 µM) | relative viability ([1]; first compound 8 µM) | relative viability ([2]; first compound 0.08 µM) | relative viability ([2]; first compound 0.253 µM) | relative viability ([2]; first compound 0.8 µM) | relative viability ([2]; first compound 2.53 µM) | relative viability ([2]; first compound 8 µM) | relative viability ([3]; first compound 0.08 µM) | relative viability ([3]; first compound 0.253 µM) | relative viability ([3]; first compound 0.8 µM) | relative viability ([3]; first compound 2.53 µM) | relative viability ([3]; first compound 8 µM) | relative viability ([4]; first compound 0.2 µM) | relative viability ([4]; first compound 0.6325 µM) | relative viability ([4]; first compound 2 µM) | relative viability ([4]; first compound 6.325 µM)
1 | NCI-H838 | 0.805 | 0.994 | 0.934 | 0.614 | 0.769 | 0.984 | 1.08 | 1.05 | 0.622 | 0.623 | 0.167 | 0.203 | 0.204 | 0.167 | 0.163 | 0.28 | 0.27 | 0.286 | 0.246
2 | NCI-H1755 | 0.87 | 0.864 | 0.75 | 0.497 | 0.467 | 0.833 | 0.737 | 0.682 | 0.43 | 0.498 | 0.425 | 0.416 | 0.443 | 0.444 | 0.379 | 0.668 | 0.464 | 0.592 | 0.557
3 | HCC-78 | 0.285 | 0.209 | 0.223 | 0.214 | 0.236 | 0.663 | 0.438 | 0.433 | 0.203 | 0.306 | 0.402 | 0.449 | 0.4 | 0.378 | 0.427 | 0.388 | 0.439 | 0.314 | 0.409
4 | IA-LM | 0.861 | 0.732 | 0.786 | – | 0.969 | 0.859 | 0.979 | 0.977 | 0.618 | 0.744 | – | – | – | – | – | – | – | – | –
5 | NCI-H322M | 0.718 | 0.601 | 0.707 | 0.355 | 0.651 | 1.24 | 1 | 1.07 | 0.675 | 0.798 | 0.447 | 0.486 | 0.476 | 0.424 | 0.39 | 0.481 | 0.451 | 0.417 | 0.437
6 | NCI-H3122 | 0.828 | 0.993 | 1.02 | 0.85 | 0.816 | 0.96 | 1.01 | 1.07 | 0.894 | 0.97 | 0.192 | 0.198 | 0.168 | 0.155 | 0.154 | 0.429 | 0.413 | 0.543 | 0.536
7 | COR-L23 | 0.595 | 0.933 | 1.03 | 0.565 | 0.686 | 0.711 | 1.02 | 1.23 | 0.756 | 0.857 | 0.223 | 0.28 | 0.305 | 0.338 | 0.224 | 0.24 | 0.195 | 0.319 | 0.457
8 | NCI-H650 | 0.856 | – | 0.753 | 0.362 | 0.491 | – | – | – | – | – | 0.364 | 0.291 | 0.276 | 0.237 | 0.271 | 0.773 | 0.714 | 0.793 | 0.709
9 | NCI-H1792 | 0.313 | 0.41 | 0.501 | 0.319 | 0.271 | 0.508 | 0.511 | 0.566 | 0.341 | 0.463 | 0.593 | 0.611 | 0.648 | 0.561 | 0.512 | – | – | – | –
10 | ChaGo-K-1 | – | – | – | – | – | 1.09 | – | 1.18 | 0.986 | 1.1 | 0.948 | 0.901 | 0.926 | 0.919 | 0.934 | 0.206 | 0.218 | 0.219 | 0.244
11 | NCI-H2342 | – | – | – | – | – | – | – | – | – | – | 0.536 | 0.499 | 0.506 | 0.54 | 0.448 | 0.503 | 0.659 | 0.57 | 0.511
12 | NCI-H1299 | 0.907 | 1.03 | 1.11 | 0.803 | 1.17 | 0.982 | 1.04 | 1.1 | 0.917 | 1.04 | – | – | – | – | – | – | – | – | –
13 | NCI-H1650 | – | – | – | – | – | 0.873 | – | 0.747 | 0.702 | 0.819 | 0.312 | 0.271 | 0.269 | 0.267 | 0.288 | 0.482 | 0.483 | 0.576 | 0.49
14 | SW 900 | – | – | – | – | – | – | – | – | – | – | 0.474 | 0.434 | 0.348 | 0.355 | 0.389 | 0.509 | 0.539 | 0.585 | 0.548
15 | NCI-H596 | 0.789 | 0.979 | 1.01 | 0.957 | 1.02 | 0.596 | 0.827 | 0.925 | 0.912 | 0.836 | – | – | – | – | – | 0.961 | 1.1 | 0.91 | 0.893
16 | NCI-H1648 | – | – | – | – | – | – | – | – | – | – | 0.313 | 0.275 | 0.265 | – | 0.242 | 0.491 | 0.527 | 0.508 | 0.538
17 | NCI-H522 | – | – | – | – | – | – | – | – | – | – | 1.07 | 0.933 | 0.691 | 0.805 | 0.825 | 0.573 | 0.671 | 0.547 | 0.606
18 | A549 | 0.478 | 0.347 | 0.466 | – | 0.432 | 1.07 | 1.25 | 1.06 | 0.607 | 0.961 | – | – | – | – | – | – | – | – | –
19 | NCI-H2170 | – | – | – | – | – | 0.502 | 0.558 | 0.594 | 0.444 | 0.476 | 0.36 | 0.387 | 0.387 | 0.384 | 0.347 | 0.696 | 0.703 | 0.788 | 0.752
20 | NCI-H661 | 0.446 | 0.422 | 0.398 | – | 0.37 | – | – | – | – | – | 0.41 | 0.43 | 0.41 | 0.387 | 0.364 | 0.377 | 0.342 | 0.344 | 0.363
21 | NCI-H1563 | 1.02 | 0.951 | 0.908 | 0.843 | 0.759 | – | – | – | – | – | – | – | – | – | – | – | – | – | –
22 | ABC-1 | 0.611 | 0.801 | 0.81 | 0.521 | 0.815 | – | – | – | – | – | 0.603 | 0.79 | 0.664 | 0.662 | 0.544 | 0.197 | 0.211 | 0.201 | 0.297
23 | LCLC-103H | 0.869 | 0.73 | 0.72 | 0.605 | 0.572 | – | – | – | – | – | 0.48 | 0.475 | 0.47 | 0.265 | 0.353 | 0.396 | 0.494 | 0.462 | 0.453
